Experiment [1] relates to Staphylococcus aureus. The experiment in a line: Antibacterial activity against Staphylococcus aureus. In kind it is functional.
For experiment [2], the system named is Streptococcus pneumoniae. The experiment is described as follows: Antibacterial activity against Streptococcus pneumoniae. In kind it is functional.
The test system of experiment [3] is Neisseria meningitidis. The experiment is described as follows: Antibacterial activity against Neisseria meningitidis. The experiment is classed as functional.
Experiment [4] has as its system Escherichia coli. The experiment in a line: Antibacterial activity against Escherichia coli. The experiment is classed as functional.
In experiment [5] the target is T1, Beta-ketoacyl-[acyl-carrier-protein] synthase III (Enterococcus faecalis (strain ATCC 700802 / V583), UniProt Q820T1).
T1 sequence (Q820T1 whole entry): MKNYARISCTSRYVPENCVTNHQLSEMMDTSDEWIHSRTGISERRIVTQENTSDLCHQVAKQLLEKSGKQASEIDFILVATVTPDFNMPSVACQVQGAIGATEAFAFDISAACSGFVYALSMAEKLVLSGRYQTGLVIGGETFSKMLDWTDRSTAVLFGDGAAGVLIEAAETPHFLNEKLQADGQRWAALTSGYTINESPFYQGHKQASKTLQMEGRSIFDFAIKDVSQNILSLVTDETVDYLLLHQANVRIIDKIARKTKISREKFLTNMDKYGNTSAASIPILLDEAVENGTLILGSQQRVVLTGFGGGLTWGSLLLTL
The experiment is described as follows: Inhibition of Enterococcus faecalis FabH by FabD/FabH coupled assay.

The text below walks through data of ChEMBL document CHEMBL1156671, “QSAR studies on benzoylaminobenzoic acid derivatives as inhibitors of beta-ketoacyl-acyl carrier protein synthase III” (Eur J Med Chem, 2008).

As a reminder, the IC50 is the midpoint of a concentration-inhibition curve. High values mean weaker potency, low ones greater potency.

As to `Cc1cc(-c2ccc(C(=O)Nc3ccccc3C(=O)O)cc2Oc2ccccc2)ccc1F`, the “-logMIC” value was 5.252 in experiment [1], 6.155 in experiment [2], 6.155 in experiment [3] and 6.155 in experiment [4].
Take `O=C(Nc1ccccc1C(=O)O)c1ccc(-c2ccc(F)cc2F)c(Oc2ccccc2)c1`: the “-logMIC” value in experiment [1] came out at 5.252; in experiment [2], 5.553; in experiment [3] it was 6.444; in experiment [4], 6.155.
Regarding `CC1CC(C)CN(c2ccc(C(=O)Nc3ccccc3C(=O)O)cc2Oc2ccccc2)C1` (stereo not given), the “-logMIC” value came to 5.252 in experiment [1], 5.553 in experiment [2], 5.553 in experiment [3] and 5.252 in experiment [4].
On to `CC(C)c1cccc(-c2ccc(C(=O)Nc3ccccc3C(=O)O)cc2Oc2ccccc2)c1`, for which the “-logMIC” value in experiment [1] was found to be 5.252; in experiment [2], 5.854; in experiment [3], 5.854; in experiment [4] it was 5.553.
On to `Cc1cc(-c2ccc(C(=O)Nc3ccccc3C(=O)O)cc2Oc2ccccc2)ccc1Cl`, for which the “-logMIC” value is reported as 5.252 in experiment [1], 5.553 in experiment [2], 6.155 in experiment [3] and 6.155 in experiment [4].
As to `O=C(Nc1ccccc1C(=O)O)c1ccc(-c2ccccc2)c(Oc2ccccc2)c1`, the “-logMIC” value in experiment [1] was found to be 4.947; in experiment [2], 5.854; in experiment [3] it was 5.854; in experiment [4], 5.854.
For the compound `O=C(Nc1ccccc1C(=O)O)c1ccc(-c2ccc(C(F)(F)F)cc2)c(Oc2ccccc2)c1`, the “-logMIC” value in experiment [1] turned out to be 5.252; in experiment [2], 6.155; in experiment [3] it was 5.854; in experiment [4] it was 6.155.
Consider `O=C(Nc1ccccc1C(=O)O)c1cc(O)c(Br)c(Oc2ccccc2)c1`, for which the “-logMIC” value in experiment [1] stood at 4.347; in experiment [2] it was 4.347; in experiment [3] it was 5.553; in experiment [4] it was 5.553. In experiment [5], this compound gave an IC50 of 62.1 nM.
In experiment [5], `O=C(NC1SC=CC1C(=O)O)c1cccc(Oc2ccccc2)c1` (stereo not given) gave an IC50 of 43000 nM.
`CS(=O)(=O)c1ccc(-c2ccc(C(=O)Nc3ccccc3C(=O)O)cc2Oc2ccccc2)cc1`: the “-logMIC” value in experiment [1] was found to be 4.347; in experiment [2] it was 4.347; in experiment [3] it was 5.252; in experiment [4] it was 5.252.
For `O=C(Nc1ccccc1C(=O)O)c1cc(O)cc(Oc2ccccc2)c1`, the IC50 in experiment [5] was 410 nM.
Take `O=C(Nc1ccccc1C(=O)O)c1cc(O)c(-c2ccccc2)c(Oc2ccccc2)c1`: the “-logMIC” value in experiment [1] is on record as 4.658; in experiment [2] it was 4.658; in experiment [3], 5.854; in experiment [4] it was 5.854. The compound also had an IC50 in experiment [5] of 4 nM.
Compound `O=C(NC1=CCSC1C(=O)O)c1cccc(Oc2ccccc2)c1` (stereo not given) had an IC50 in experiment [5] of 10100 nM.
